Experimental findings from PMC11752117 (Journal of Traditional and Complementary Medicine, 2024) are described below.

Test in all cases: microbe, parasite or virus in culture
Common to all, as to format: cell-based

In one experiment the test system is SARS-CoV-2 Alpha variant. The conditions noted are these: Severe acute respiratory syndrome coronavirus 2, A549, 48 h, read-out: IC50, inhibition of SARS-CoV-2 infection, Alpha, A549-ACE2-TMPRSS2, 1.56 to 50 μM for 2 days, n = 2.
For the next experiment, the system named is SARS-CoV-2 Delta variant. The conditions noted are these: Severe acute respiratory syndrome coronavirus 2, A549, 48 h, read-out: IC50, inhibition of SARS-CoV-2 infection.
Experiment [1] deals with SARS-CoV-2 Omicron BA.2 variant. The conditions noted are these: Severe acute respiratory syndrome coronavirus 2, A549, 48 h, read-out: IC50, inhibition of SARS-CoV-2 infection.

`C=C1CC[C@@H]2[C@](C)(CO)[C@H](O)CC[C@@]2(C)[C@@H]1C/C=C1/C(=O)OC[C@H]1O` [Andrographolide, andrographolide]: the values for the IC50 (in the experiment on SARS-CoV-2 Alpha variant; in the experiment with SARS-CoV-2 Delta variant; in experiment [1]) were 7.08 µM, 7.35 µM and 4.62 µM, respectively.
